Results as given in patent US11000033B2, “Ketone or oxime compound, and herbicide” (NISSAN CHEMICAL CORPORATION, priority 2014, dated 2021).

Columns and labels:
Format in all cases: in vivo
[1] = test system: Amaranthus retroflexus; test: Test Example 5: herbicidal effect by foliage application, plastic box (symbol N); conditions: 320 g/ha, 3 weeks after application
Outline: (§1)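 Effect is rated 3 weeks after a foliar spray of water-diluted emulsion concentrate at a predetermined herbicide amount. Plants had grown 14 days in a 25° C. to 30° C. greenhouse from seed in sterilized diluvial soil.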

[2] = test system: Abutilon theophrasti; test: Test Example 5: herbicidal effect by foliage application, plastic box (symbol M); conditions: 320 g/ha, 3 weeks after application
Outline: as §1

[3] = test system: Veronica persica; test: Test Example 5: herbicidal effect by foliage application, plastic box (symbol R); conditions: 320 g/ha, 3 weeks after application
Outline: as §1

[4] = test system: Echinochloa oryzacola Vasing.; test: Test Example 2: herbicidal activity, application during weed generation in submerged conditions (symbol A); conditions: Table 23; application herbicide amount 320 g/ha; grade 0-5 by criteria of Test Example 1
Outline: (§2)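 Compound was applied as a water-diluted emulsion into the standing water of flooded pots (4 cm) once co-sown weeds reached one to two leaves. Greenhouse temperature was 25° C. to 30° C., soil was alluvial, and each species was rated visually after 3 weeks.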

[5] = test system: Stellaria media; test: Test Example 5: herbicidal effect by foliage application, plastic box (symbol P); conditions: 320 g/ha, 3 weeks after application
Outline: as §1

[6] = test system: Setaria viridis; test: Test Example 5: herbicidal effect by foliage application, plastic box (symbol G); conditions: 320 g/ha, 3 weeks after application
Outline: as §1

[7] = test system: Chenopodium album; test: Test Example 5: herbicidal effect by foliage application, plastic box (symbol O); conditions: 320 g/ha, 3 weeks after application
Outline: as §1

[8] = test system: Amaranthus retroflexus; test: Test Example 4: herbicidal effect by soil treatment (symbol N); conditions: application herbicide amount 320 g/ha
Outline: (§3)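 Seeds were sown in sterilized diluvial soil, covered with about 1.5 cm of soil, and the soil surface was sprayed with a water-diluted emulsion of the compound at a predetermined rate. Plants grew in a greenhouse at 25° C. to 30° C.; effects were scored visually 3 weeks after application.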

[9] = test system: Alopecurus myosuroides; test: Test Example 4: herbicidal effect by soil treatment (symbol J); conditions: application herbicide amount 320 g/ha
Outline: as §3

[10] = test system: Lolium multiflorum Lam.; test: Test Example 4: herbicidal effect by soil treatment (symbol K); conditions: application herbicide amount 320 g/ha
Outline: as §3

[11] = test system: soybean; test: Test Example 4: effect on crop by soil treatment (symbol d); conditions: application herbicide amount 320 g/ha
Outline: (§4)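 Grown at 25° C. to 30° C. in a greenhouse, the crops came from seed sown spot-wise in sterilized diluvial soil under roughly 1.5 cm of covering soil.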

[12] = test system: Echinochloa crus-galli var. crus-galli; test: Test Example 4: herbicidal effect by soil treatment (symbol H); conditions: application herbicide amount 320 g/ha
Outline: as §3

[13] = test system: beet; test: Test Example 5: effect on crop by foliage application, plastic box (symbol f); conditions: 320 g/ha, 3 weeks after application
Outline: (§5)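 Foliage-application test plants come from spot sowing in sterilized diluvial soil under a soil layer of about 1.5 cm, grown at 25° C. to 30° C. in a greenhouse.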

[14] = test system: Chenopodium album; test: Test Example 4: herbicidal effect by soil treatment (symbol O); conditions: application herbicide amount 320 g/ha
Outline: as §3

[15] = test system: wheat; test: Test Example 4: effect on crop by soil treatment (symbol e); conditions: application herbicide amount 320 g/ha
Outline: as §4

[16] = test system: rice plant; test: Test Example 5: effect on crop by foliage application, plastic box (symbol b); conditions: 320 g/ha, 3 weeks after application
Outline: as §5

[17] = test system: Cyperus difformis; test: Test Example 3: herbicidal effect by foliage application, Wagner pot (symbol E); conditions: application herbicide amount 320 g/ha, Table 24
Outline: (§6)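 In a shallow-flooded alluvial soil system held at 25–30 °C, plants including rice grew for 14 days and were then sprayed over the foliage with emulsion diluted to a fixed herbicide amount. Visual rating followed at 3 weeks.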

[18] = test system: Scirpus juncoides; test: Test Example 2: herbicidal activity, application during weed generation in submerged conditions (symbol B); conditions: Table 23; application herbicide amount 320 g/ha; grade 0-5 by criteria of Test Example 1
Outline: as §2

[19] = test system: Echinochloa crus-galli var. crus-galli; test: Test Example 3: herbicidal effect by foliage application, Wagner pot (symbol H); conditions: application herbicide amount 320 g/ha, Table 24
Outline: as §6

[20] = test system: beet; test: Test Example 4: effect on crop by soil treatment (symbol f); conditions: application herbicide amount 320 g/ha
Outline: as §4

## CC(CC1CC(O)=C(c2c(C)cc(-n3cc(Cl)cn3)cc2C)C1=O)=NOCC(F)(F)F (centres unmarked) [9-010]
[1]
  N: Amaranthus retroflexus, herbicidal effect grade: 3 (Herbicidal ratio of 40% or higher and lower than 70%)
[2]
  M: Abutilon theophrasti, herbicidal effect grade: 0 (Herbicidal ratio of 5% or lower (almost no effect))
[3]
  R: Veronica persica, herbicidal effect grade: 3 (Herbicidal ratio of 40% or higher and lower than 70%)
[4]
  Herbicidal effect grade, A: Echinochloa oryzacola Vasing.: 4 (Herbicidal ratio of 70% or higher and lower than 90%)
[5]
  P: Stellaria media, herbicidal effect grade: 3 (Herbicidal ratio of 40% or higher and lower than 70%)
[6]
  G: Setaria viridis, herbicidal effect grade: 5 (Herbicidal ratio of 90% or more (almost completely withered))
[7]
  O: Chenopodium album, herbicidal effect grade: 3 (Herbicidal ratio of 40% or higher and lower than 70%)
[8]
  Herbicidal effect grade, N: Amaranthus retroflexus: 0 (Herbicidal ratio of 5% or lower (almost no effect))
[9]
  Herbicidal effect grade, J: Alopecurus myosuroides: 5 (Herbicidal ratio of 90% or more (almost completely withered))
[10]
  Herbicidal effect grade, K: Lolium multiflorum Lam.: 5 (Herbicidal ratio of 90% or more (almost completely withered))
[11]
  Effect on crop grade, d: soybean: 0 (Herbicidal ratio of 5% or lower (almost no effect))
[12]
  Herbicidal effect grade, H: Echinochloa crus-galli var. crus-galli: 5 (Herbicidal ratio of 90% or more (almost completely withered))
[13]
  f: beet, effect on crop grade: 0 (Herbicidal ratio of 5% or lower (almost no effect))
[14]
  Herbicidal effect grade, O: Chenopodium album: 0 (Herbicidal ratio of 5% or lower (almost no effect))
[15]
  Effect on crop grade, e: wheat: 0 (Herbicidal ratio of 5% or lower (almost no effect))
[16]
  b: directly sowed rice plant, effect on crop grade: 5 (Herbicidal ratio of 90% or more (almost completely withered))
[17]
  E herbicidal effect grade: 5 (Herbicidal ratio of 90% or more (almost completely withered))
[18]
  Herbicidal effect grade, B: Scirpus juncoides: 4 (Herbicidal ratio of 70% or higher and lower than 90%)
[19]
  H (Echinochloa crus-galli var. crus-galli) herbicidal effect grade: 5 (Herbicidal ratio of 90% or more (almost completely withered))
[20]
  Effect on crop grade, f: beet: 0 (Herbicidal ratio of 5% or lower (almost no effect))

## CC#Cc1cc(C)c(C2=C(O)CC(CC(C)=NOCC(F)(F)F)C2=O)c(C)c1 (centres unmarked) [9-011]
[1]
  N: Amaranthus retroflexus, herbicidal effect grade: 2 (Herbicidal ratio of 20% or higher and lower than 40%)
[2]
  M: Abutilon theophrasti, herbicidal effect grade: 2 (Herbicidal ratio of 20% or higher and lower than 40%)
[3]
  R: Veronica persica, herbicidal effect grade: 3 (Herbicidal ratio of 40% or higher and lower than 70%)
[4]
  Herbicidal effect grade, A: Echinochloa oryzacola Vasing.: 5 (Herbicidal ratio of 90% or more (almost completely withered))
[5]
  P: Stellaria media, herbicidal effect grade: 0 (Herbicidal ratio of 5% or lower (almost no effect))
[6]
  G: Setaria viridis, herbicidal effect grade: 5 (Herbicidal ratio of 90% or more (almost completely withered))
[7]
  O: Chenopodium album, herbicidal effect grade: 1 (Herbicidal ratio of 5% or higher and lower than 20%)
[8]
  Herbicidal effect grade, N: Amaranthus retroflexus: 0 (Herbicidal ratio of 5% or lower (almost no effect))
[9]
  Herbicidal effect grade, J: Alopecurus myosuroides: 5 (Herbicidal ratio of 90% or more (almost completely withered))
[10]
  Herbicidal effect grade, K: Lolium multiflorum Lam.: 5 (Herbicidal ratio of 90% or more (almost completely withered))
[11]
  Effect on crop grade, d: soybean: 0 (Herbicidal ratio of 5% or lower (almost no effect))
[12]
  Herbicidal effect grade, H: Echinochloa crus-galli var. crus-galli: 5 (Herbicidal ratio of 90% or more (almost completely withered))
[13]
  f: beet, effect on crop grade: 0 (Herbicidal ratio of 5% or lower (almost no effect))
[14]
  Herbicidal effect grade, O: Chenopodium album: 0 (Herbicidal ratio of 5% or lower (almost no effect))
[15]
  Effect on crop grade, e: wheat: 4 (Herbicidal ratio of 70% or higher and lower than 90%)
[16]
  b: directly sowed rice plant, effect on crop grade: 5 (Herbicidal ratio of 90% or more (almost completely withered))
[17]
  E herbicidal effect grade: 5 (Herbicidal ratio of 90% or more (almost completely withered))
[18]
  Herbicidal effect grade, B: Scirpus juncoides: 5 (Herbicidal ratio of 90% or more (almost completely withered))
[19]
  H (Echinochloa crus-galli var. crus-galli) herbicidal effect grade: 5 (Herbicidal ratio of 90% or more (almost completely withered))
[20]
  Effect on crop grade, f: beet: 0 (Herbicidal ratio of 5% or lower (almost no effect))

## CC(CC1CC(OC(=O)COc2ccccc2)=C(c2c(C)cc(-n3cc(Cl)cn3)cc2C)C1=O)=NOCC(F)(F)F (centres unmarked) [9-012]
[1]
  N: Amaranthus retroflexus, herbicidal effect grade: 4 (Herbicidal ratio of 70% or higher and lower than 90%)
[2]
  M: Abutilon theophrasti, herbicidal effect grade: 1 (Herbicidal ratio of 5% or higher and lower than 20%)
[3]
  R: Veronica persica, herbicidal effect grade: 3 (Herbicidal ratio of 40% or higher and lower than 70%)
[4]
  Herbicidal effect grade, A: Echinochloa oryzacola Vasing.: 5 (Herbicidal ratio of 90% or more (almost completely withered))
[5]
  P: Stellaria media, herbicidal effect grade: 4 (Herbicidal ratio of 70% or higher and lower than 90%)
[6]
  G: Setaria viridis, herbicidal effect grade: 5 (Herbicidal ratio of 90% or more (almost completely withered))
[7]
  O: Chenopodium album, herbicidal effect grade: 2 (Herbicidal ratio of 20% or higher and lower than 40%)
[8]
  Herbicidal effect grade, N: Amaranthus retroflexus: 0 (Herbicidal ratio of 5% or lower (almost no effect))
[9]
  Herbicidal effect grade, J: Alopecurus myosuroides: 5 (Herbicidal ratio of 90% or more (almost completely withered))
[10]
  Herbicidal effect grade, K: Lolium multiflorum Lam.: 5 (Herbicidal ratio of 90% or more (almost completely withered))
[11]
  Effect on crop grade, d: soybean: 0 (Herbicidal ratio of 5% or lower (almost no effect))
[12]
  Herbicidal effect grade, H: Echinochloa crus-galli var. crus-galli: 5 (Herbicidal ratio of 90% or more (almost completely withered))
[13]
  f: beet, effect on crop grade: 0 (Herbicidal ratio of 5% or lower (almost no effect))
[14]
  Herbicidal effect grade, O: Chenopodium album: 0 (Herbicidal ratio of 5% or lower (almost no effect))
[15]
  Effect on crop grade, e: wheat: 0 (Herbicidal ratio of 5% or lower (almost no effect))
[16]
  b: directly sowed rice plant, effect on crop grade: 5 (Herbicidal ratio of 90% or more (almost completely withered))
[17]
  E herbicidal effect grade: 5 (Herbicidal ratio of 90% or more (almost completely withered))
[18]
  Herbicidal effect grade, B: Scirpus juncoides: 4 (Herbicidal ratio of 70% or higher and lower than 90%)
[19]
  H (Echinochloa crus-galli var. crus-galli) herbicidal effect grade: 5 (Herbicidal ratio of 90% or more (almost completely withered))
[20]
  Effect on crop grade, f: beet: 0 (Herbicidal ratio of 5% or lower (almost no effect))

## Cc1cc(-n2cc(Cl)cn2)cc(C)c1C1=C(O)CC(CC(=NOCC(F)(F)F)C(C)C)C1=O (centres unmarked) [9-014]
[1]
  N: Amaranthus retroflexus, herbicidal effect grade: 0 (Herbicidal ratio of 5% or lower (almost no effect))
[2]
  M: Abutilon theophrasti, herbicidal effect grade: 0 (Herbicidal ratio of 5% or lower (almost no effect))
[3]
  R: Veronica persica, herbicidal effect grade: 2 (Herbicidal ratio of 20% or higher and lower than 40%)
[4]
  Herbicidal effect grade, A: Echinochloa oryzacola Vasing.: 2 (Herbicidal ratio of 20% or higher and lower than 40%)
[5]
  P: Stellaria media, herbicidal effect grade: 0 (Herbicidal ratio of 5% or lower (almost no effect))
[6]
  G: Setaria viridis, herbicidal effect grade: 5 (Herbicidal ratio of 90% or more (almost completely withered))
[7]
  O: Chenopodium album, herbicidal effect grade: 0 (Herbicidal ratio of 5% or lower (almost no effect))
[8]
  Herbicidal effect grade, N: Amaranthus retroflexus: 0 (Herbicidal ratio of 5% or lower (almost no effect))
[9]
  Herbicidal effect grade, J: Alopecurus myosuroides: 0 (Herbicidal ratio of 5% or lower (almost no effect))
[10]
  Herbicidal effect grade, K: Lolium multiflorum Lam.: 0 (Herbicidal ratio of 5% or lower (almost no effect))
[11]
  Effect on crop grade, d: soybean: 0 (Herbicidal ratio of 5% or lower (almost no effect))
[12]
  Herbicidal effect grade, H: Echinochloa crus-galli var. crus-galli: 1 (Herbicidal ratio of 5% or higher and lower than 20%)
[13]
  f: beet, effect on crop grade: 0 (Herbicidal ratio of 5% or lower (almost no effect))
[14]
  Herbicidal effect grade, O: Chenopodium album: 0 (Herbicidal ratio of 5% or lower (almost no effect))
[15]
  Effect on crop grade, e: wheat: 0 (Herbicidal ratio of 5% or lower (almost no effect))
[16]
  b: directly sowed rice plant, effect on crop grade: 5 (Herbicidal ratio of 90% or more (almost completely withered))
[17]
  E herbicidal effect grade: 5 (Herbicidal ratio of 90% or more (almost completely withered))
[18]
  Herbicidal effect grade, B: Scirpus juncoides: 0 (Herbicidal ratio of 5% or lower (almost no effect))
[19]
  H (Echinochloa crus-galli var. crus-galli) herbicidal effect grade: 5 (Herbicidal ratio of 90% or more (almost completely withered))
[20]
  Effect on crop grade, f: beet: 0 (Herbicidal ratio of 5% or lower (almost no effect))
